# Reference: patent publication US8158821B2, “Crystal of 5-aminolevulinic acid phosphate and process for producing the same” (priority 2006, dated 2012)
# Legend:
# [1] = Test on moisture absorption resistance (change in mass on standing at 25° C. and 90% RH); assay type: physicochemical; settings: for ratio of change in mass: 25° C., 90% RH, 1 g solid, phosphate
# Procedure: With regard to 5-aminolevulinic acid phosphate, moisture absorption resistance was evaluated by weighing out 1 g of each of the powder obtained by a conventional method (the method described in Example 1 of WO2005/100300 pamphlet) and the crystal obtained in Example 1, allowing it to stand under conditions of 25° C. and 90% RH, subsequently measuring mass after the passage of each period of time, and calculating a ratio of change in mass.
# [2] = Thermal stability test (increase in PDPA content on heating, by liquid chromatography); assay type: physicochemical; settings: for Increase in PDPA concentration in solid: heating time 96 hr, phosphate
# Procedure: With regard to 5-aminolevulinic acid phosphate, 1 g of each of the powder obtained by a conventional method (the method described in Example 1 of WO2005/100300 pamphlet) and the crystal obtained in Example 1 was weighed out and allowed to stand under each condition shown in Table 3. The amount of 2,5-pyrazinedipropionic acid (PDPA), which is an impurity generated by heating and a compound formed by dimerization of 5-aminolevulinic acid molecules, was measured by liquid chromatography. An increase in the content of PDPA in 5-aminolevulinic acid phosphate was calculated and thermal stability as a substance was evaluated.
# Analytical conditions for liquid chromatography: separation column: μBondasphere C18 5μ 100 Å manufactured by Waters, eluent: a mixture of 2% aqueous acetic acid solution and methanol in a volume ratio of 90/10, flow rate: 1.0 mL/min, injection amount of sample: 50 μl, column temperature: 40° C., detector: UV detector (276 nm).
SMILES,ratio of change in mass ([1]; time passed 1 hr),ratio of change in mass ([1]; time passed 3 hr),ratio of change in mass ([1]; time passed 5 hr),ratio of change in mass ([1]; time passed 6 hr),ratio of change in mass ([1]; time passed 7 hr),ratio of change in mass ([1]; time passed 24 hr),"moisture absorption resistance (in words) ([1]; as compared with the conventional powder, Table 2)","thermal stability (in words) ([2]; as compared with the conventional powder, Table 3)",Increase in PDPA concentration in solid ([2]; heating temperature 30° C.),Increase in PDPA concentration in solid ([2]; heating temperature 60° C.)
"NCC(=O)CCC(=O)O.O=P(O)(O)O [Crystal, 5-aminolevulinic acid phosphate]",+0.05%,+0.06%,+0.09%,+0.08%,+0.09%,+0.4%,excellent in moisture absorption resistance,excellent in thermal stability,+0 ppm,−0 ppm
"NCC(=O)CCC(=O)O.O=P(O)(O)O [Powder, 5-aminolevulinic acid phosphate]",+6%,+11%,+14%,+16%,+17%,+21%,–,–,+10 ppm,+302 ppm
